Data published in US20230151326A1, “Simplified Compositions and Methods for Generating Neural Stem Cells from Human Pluripotent Stem Cells” (Wisconsin Alumni Research Foundation, priority 2012, published 2023).

Tested on: H9 hESCs
Test: Flow cytometry of neural markers in H9 hESCs differentiated in neural differentiation media
Assay type: cell-based, human
Settings: day 9, E6 medium containing 1 μM RA
Procedure: hPSCs were washed once with phosphate-buffered saline (PBS; Invitrogen), incubated with Accutase® (Invitrogen) for 3 min, and collected by centrifugation. hPSCs were then plated onto Matrigel® or VTN-NC at a density of 2×10^5 cells/cm^2 in E8 medium containing 10 μM ROCK inhibitor and cultured overnight. The following morning, cells were changed to E6 medium, E6 containing 10 μM SB431542 (Cellagentech), or E6 containing 10 μM SB431542 and 200 ng/mL recombinant human noggin (R&D Systems) to initiate differentiation. E6 medium is the same formulation as E8 medium but without FGF2 and TGFβ1. Medium was changed every day until cells were utilized for analysis. […]
Cells were harvested from 6- or 12-well plates by washing once with PBS and incubating with Accutase® for 3-5 min. […] After washing twice with PBS containing 0.75% BSA, cells were analyzed on a FACSCanto™ (BD Biosciences) and resultant data were analyzed using Cyflogic software. Positive events were determined by gating the top 1% of the IgG control histograms, and all flow data presented are from biological replicates.
H9 hESCs were seeded at 2×10^5 cells/cm^2 on Matrigel® in E8 medium plus ROCK inhibitor as described above. […] Also, the morphological characteristics of the cells at day 6 were assessed by bright field microscopy. […]

CC1=C(/C=C/C(C)=C/C=C/C(C)=C/C(=O)O)C(C)(C)CCC1 [retinoic acid]
SOX1 expression by flow cytometry: up to 62±16%
